Laboratory results: ChEMBL document CHEMBL1141848, “Prenylagaramides A and B, new cyclic peptides from two strains of oscillatoria agardhii” (J Nat Prod, 1999)
Calls of active or inactive are those of the source. The calls are words filed in the database; no cut-off is given here. Residues, ends and D or L forms follow the SMILES beside them. *: point of attachment. Prenyl = CC(C)=CC*

Legend:
[1] = Inhibition of elastase
[2] = Inhibition of chymotrypsin
[3] = biological target: Prothrombin (Homo sapiens) (UniProt P00734); test: Inhibition of thrombin
[4] = Inhibition of trypsin
[5] = biological target: Plasminogen (Homo sapiens) (UniProt P00747); test: Inhibition of plasmin
[6] = biological target: Cytosol aminopeptidase (Homo sapiens) (UniProt P28838); test: Inhibition of leucine amino peptidase
Papain (Carica papaya) = biological target: T1, Papain (Carica papaya) (UniProt P00784); test: Inhibition of papaya papain
T1 sequence (whole entry): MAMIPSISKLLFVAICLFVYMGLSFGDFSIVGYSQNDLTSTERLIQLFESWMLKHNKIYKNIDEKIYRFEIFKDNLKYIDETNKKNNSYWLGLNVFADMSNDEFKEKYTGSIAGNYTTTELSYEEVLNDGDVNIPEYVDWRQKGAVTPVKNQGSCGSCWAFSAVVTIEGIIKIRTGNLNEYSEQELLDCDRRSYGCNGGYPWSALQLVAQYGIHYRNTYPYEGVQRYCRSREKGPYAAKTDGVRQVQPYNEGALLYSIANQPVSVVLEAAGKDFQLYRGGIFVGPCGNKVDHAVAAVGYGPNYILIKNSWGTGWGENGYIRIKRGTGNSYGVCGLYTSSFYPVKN

P388 = test: Cytotoxicity against mouse P388 cells; format: functional, cell-based

Chain of Cytosol aminopeptidase (Homo sapiens) (P28838 whole entry): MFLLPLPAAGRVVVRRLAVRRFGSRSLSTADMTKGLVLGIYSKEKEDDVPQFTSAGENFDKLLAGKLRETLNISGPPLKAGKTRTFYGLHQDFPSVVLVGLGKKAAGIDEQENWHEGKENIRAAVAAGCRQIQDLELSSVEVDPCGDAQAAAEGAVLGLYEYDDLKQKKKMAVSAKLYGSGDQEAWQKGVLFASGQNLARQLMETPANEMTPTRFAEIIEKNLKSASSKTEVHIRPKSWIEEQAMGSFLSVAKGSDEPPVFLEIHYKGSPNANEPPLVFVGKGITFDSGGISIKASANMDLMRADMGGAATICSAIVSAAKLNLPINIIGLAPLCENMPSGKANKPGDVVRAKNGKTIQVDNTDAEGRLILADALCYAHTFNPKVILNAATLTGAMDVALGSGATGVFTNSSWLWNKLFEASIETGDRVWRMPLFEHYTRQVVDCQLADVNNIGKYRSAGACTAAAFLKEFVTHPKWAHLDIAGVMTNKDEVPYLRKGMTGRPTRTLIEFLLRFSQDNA
Chain of Plasminogen (Homo sapiens) (P00747 97-580 limits assumed): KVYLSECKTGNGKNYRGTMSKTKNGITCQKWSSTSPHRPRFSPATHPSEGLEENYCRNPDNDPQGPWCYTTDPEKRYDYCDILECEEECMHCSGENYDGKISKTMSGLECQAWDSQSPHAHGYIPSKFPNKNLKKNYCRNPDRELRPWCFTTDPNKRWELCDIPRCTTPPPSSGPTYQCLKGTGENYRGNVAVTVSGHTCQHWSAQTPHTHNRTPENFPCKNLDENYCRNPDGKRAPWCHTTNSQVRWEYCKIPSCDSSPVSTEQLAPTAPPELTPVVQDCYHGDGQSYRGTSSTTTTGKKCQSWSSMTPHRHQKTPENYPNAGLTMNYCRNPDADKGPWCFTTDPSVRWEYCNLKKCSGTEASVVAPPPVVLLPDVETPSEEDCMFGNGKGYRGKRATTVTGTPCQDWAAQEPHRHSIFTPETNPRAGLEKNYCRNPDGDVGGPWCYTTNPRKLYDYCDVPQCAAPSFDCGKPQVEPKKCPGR
Chain of Plasminogen (Homo sapiens) (P00747 581-810 limits assumed): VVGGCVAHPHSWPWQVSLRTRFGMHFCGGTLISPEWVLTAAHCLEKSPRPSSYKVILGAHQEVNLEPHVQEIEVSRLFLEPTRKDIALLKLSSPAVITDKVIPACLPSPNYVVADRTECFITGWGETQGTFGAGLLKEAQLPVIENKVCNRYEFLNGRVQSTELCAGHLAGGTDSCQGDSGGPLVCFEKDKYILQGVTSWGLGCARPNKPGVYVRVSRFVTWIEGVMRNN

Activity [1] | Activity [2] | Activity [3] | Activity [4] | Activity [5] | Activity [6] | Activity (Papain (Carica papaya)) | SMILES | Activity (P388)
inactive | inactive | inactive | inactive | inactive | inactive | inactive | CC(C)=CCOc1ccc(C[C@@H]2NC(=O)[C@@H]3CCCN3C(=O)[C@H](CC(N)=O)NC(=O)[C@H](Cc3ccccc3)NC(=O)[C@H](Cc3ccccc3)NC(=O)[C@H](CCC(=O)O)NC(=O)CNC(=O)[C@H]([C@@H](C)O)NC(=O)CNC2=O)cc1 (cyclo(EFFNPY(Prenyl)GTG)) | inactive
inactive | inactive | inactive | inactive | inactive | inactive | inactive | CC[C@H](C)[C@@H]1NC(=O)[C@@H]2CCCN2C(=O)[C@H](Cc2ccc(O)cc2)NC(=O)[C@H](CC(C)C)NC(=O)[C@H](Cc2ccc(OCC=C(C)C)cc2)NC(=O)[C@@H]2CCCN2C(=O)[C@H](CC(N)=O)NC1=O (cyclo(INPY(Prenyl)LYP)) | inactive
